Measurements published in ChEMBL document CHEMBL1201862, “PubChem BioAssay data set” (2004).
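1) Cells in 96-well plates. 2) Compound, 48 h, 5 concentrations. 3) Linear interpolation between surrounding doses. 4) Unreached endpoint = highest concentration. GI50 = concentration required for 50% inhibition of growth.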 Calls of active or inactive are those of the source. No stated cut-off is given here; in the data, active = GI50 up to about 1.1 µM and inactive = higher.

Assays:
Assay in all cases: NCI-60 cell line screen, 48 h
[1] = tested on: UACC-257
[2] = tested on: A498
[3] = tested on: HL-60
[4] = tested on: NCI-H23
[5] = tested on: DU-145
[6] = tested on: SF-539
[7] = tested on: COLO 205
[8] = tested on: SR
[9] = tested on: SK-MEL-2
[10] = tested on: OVCAR-8
[11] = tested on: MDA-MB-435
[12] = tested on: CAKI-1
[13] = tested on: NCI/ADR-RES
[14] = tested on: SF-268
[15] = tested on: M14
[16] = tested on: Malme-3M
[17] = tested on: HCC 2998
[18] = tested on: OVCAR-3
[19] = tested on: BT-549
[20] = tested on: KM12
[21] = tested on: TK-10
[22] = tested on: RXF 393
[23] = tested on: HT-29
[24] = tested on: NCI-H522
[25] = tested on: HCT-15
[26] = tested on: RPMI-8226
[27] = tested on: 786-0
[28] = tested on: SK-OV-3
[29] = tested on: K562
[30] = tested on: U-251
[31] = tested on: LOX IMVI
[32] = tested on: CCRF-CEM
[33] = tested on: HOP-92
[34] = tested on: SW-620
[35] = tested on: SNB-75
[36] = tested on: MDA-MB-231
[37] = tested on: MDA-N
[38] = tested on: OVCAR-5
[39] = tested on: Hs-578T
[40] = tested on: T47D
[41] = tested on: SK-MEL-5
[42] = tested on: HOP-62
[43] = tested on: A549
[44] = tested on: UACC-62
[45] = tested on: SF-295
[46] = tested on: MCF7
[47] = tested on: EKVX
[48] = tested on: NCI-H226
[49] = tested on: MOLT-4
[50] = tested on: SK-MEL-28
[51] = tested on: NCI-H460
[52] = tested on: ACHN
[53] = tested on: SN12C
[54] = tested on: UO-31
[55] = tested on: PC-3
[56] = tested on: OVCAR-4
[57] = tested on: HCT-116
[58] = tested on: IGROV-1
[59] = tested on: SNB-19

CC(C)Cn1cnc2c(Cl)nc3ccccc3c21
GI50 [1]: > 100 µM (inactive)
GI50 [2]: 33.9 µM (inactive)
GI50 [3]: 26.7 µM (inactive)
GI50 [4]: 59.3 µM (inactive)
GI50 [5]: 73.8 µM (inactive)
GI50 [6]: 46.3 µM (inactive)
GI50 [7]: 33.7 µM (inactive)
GI50 [8]: 25.6 µM (inactive)
GI50 [9]: > 100 µM (inactive)
GI50 [10]: 58.9 µM (inactive)
GI50 [11]: 53.2 µM (inactive)
GI50 [12]: 45.8 µM (inactive)
GI50 [13]: 61.2 µM (inactive)
GI50 [14]: 57.3 µM (inactive)
GI50 [15]: > 100 µM (inactive)
GI50 [16]: > 100 µM (inactive)
GI50 [17]: 73.3 µM (inactive)
GI50 [18]: 41.3 µM (inactive)
GI50 [19]: 51.5 µM (inactive)
GI50 [20]: 37.8 µM (inactive)
GI50 [21]: 53.6 µM (inactive)
GI50 [22]: 51.8 µM (inactive)
GI50 [23]: 46 µM (inactive)
GI50 [24]: 50.9 µM (inactive)
GI50 [25]: 53.3 µM
GI50 [26]: 42.9 µM (inactive)
GI50 [27]: 80.2 µM (inactive)
GI50 [28]: > 100 µM (inactive)
GI50 [29]: 38.4 µM (inactive)
GI50 [30]: 65.9 µM (inactive)
GI50 [31]: 35.5 µM (inactive)
GI50 [32]: 53.2 µM (inactive)
GI50 [33]: 21.8 µM (inactive)
GI50 [34]: 47.3 µM (inactive)
GI50 [35]: 18.7 µM (inactive)
GI50 [36]: 41.5 µM (inactive)
GI50 [37]: 68.2 µM (inactive)
GI50 [38]: 54.7 µM (inactive)
GI50 [39]: 27.7 µM (inactive)
GI50 [40]: 77.1 µM (inactive)
GI50 [41]: 12.2 µM (inactive)
GI50 [42]: > 100 µM (inactive)
GI50 [43]: 59.4 µM (inactive)
GI50 [44]: 40.9 µM (inactive)
GI50 [45]: 72.6 µM (inactive)
GI50 [46]: 47.9 µM (inactive)
GI50 [47]: 16.6 µM (inactive)
GI50 [48]: 40 µM (inactive)
GI50 [49]: 34.3 µM (inactive)
GI50 [50]: > 100 µM (inactive)
GI50 [51]: 54.2 µM (inactive)
GI50 [52]: 30.2 µM (inactive)
GI50 [53]: 70.6 µM (inactive)
GI50 [54]: 18.5 µM (inactive)
GI50 [55]: 34.4 µM (inactive)
GI50 [56]: 48.3 µM (inactive)
GI50 [57]: 34.4 µM (inactive)
GI50 [58]: 31.9 µM (inactive)
GI50 [59]: > 100 µM (inactive)

N#C[BH2-][n+]1ccc(C(=O)NNCC(F)(F)F)cc1
GI50 [1]: > 100 µM (inactive)
GI50 [2]: > 100 µM (inactive)
GI50 [3]: > 100 µM (inactive)
GI50 [4]: > 100 µM (inactive)
GI50 [5]: > 100 µM (inactive)
GI50 [6]: > 100 µM (inactive)
GI50 [7]: > 100 µM (inactive)
GI50 [8]: > 100 µM (inactive)
GI50 [9]: > 100 µM (inactive)
GI50 [10]: > 100 µM (inactive)
GI50 [11]: > 100 µM (inactive)
GI50 [12]: > 100 µM (inactive)
GI50 [13]: > 100 µM (inactive)
GI50 [14]: > 100 µM (inactive)
GI50 [15]: > 100 µM (inactive)
GI50 [16]: > 100 µM (inactive)
GI50 [17]: > 100 µM (inactive)
GI50 [18]: > 100 µM (inactive)
GI50 [19]: > 100 µM (inactive)
GI50 [20]: > 100 µM (inactive)
GI50 [21]: > 100 µM (inactive)
GI50 [22]: > 100 µM (inactive)
GI50 [23]: > 100 µM (inactive)
GI50 [24]: > 100 µM (inactive)
GI50 [25]: > 100 µM
GI50 [26]: > 100 µM (inactive)
GI50 [27]: > 100 µM (inactive)
GI50 [28]: > 100 µM (inactive)
GI50 [29]: > 100 µM (inactive)
GI50 [30]: > 100 µM (inactive)
GI50 [31]: > 100 µM (inactive)
GI50 [32]: > 100 µM (inactive)
GI50 [33]: > 100 µM (inactive)
GI50 [34]: > 100 µM (inactive)
GI50 [35]: > 100 µM (inactive)
GI50 [36]: > 100 µM (inactive)
GI50 [37]: > 100 µM (inactive)
GI50 [38]: > 100 µM (inactive)
GI50 [39]: > 100 µM (inactive)
GI50 [40]: > 100 µM (inactive)
GI50 [41]: > 100 µM (inactive)
GI50 [42]: > 100 µM (inactive)
GI50 [43]: > 100 µM (inactive)
GI50 [44]: > 100 µM (inactive)
GI50 [45]: > 100 µM (inactive)
GI50 [46]: > 100 µM (inactive)
GI50 [47]: > 100 µM (inactive)
GI50 [48]: > 100 µM (inactive)
GI50 [49]: > 100 µM (inactive)
GI50 [50]: > 100 µM (inactive)
GI50 [51]: > 100 µM (inactive)
GI50 [52]: > 100 µM (inactive)
GI50 [53]: > 100 µM (inactive)
GI50 [54]: > 100 µM (inactive)
GI50 [55]: > 100 µM (inactive)
GI50 [56]: > 100 µM (inactive)
GI50 [57]: > 100 µM (inactive)
GI50 [58]: > 100 µM (inactive)
GI50 [59]: > 100 µM (inactive)

C=Cc1nc2c(Cl)ncnc2n1Cc1ccccc1
GI50 [1]: 2.59 µM (inactive)
GI50 [2]: 7.13 µM (inactive)
GI50 [3]: 2.72 µM (inactive)
GI50 [4]: 3.52 µM (inactive)
GI50 [5]: 2.17 µM (inactive)
GI50 [6]: 2.13 µM (inactive)
GI50 [7]: 1.53 µM (inactive)
GI50 [8]: 2.56 µM (inactive)
GI50 [9]: 12.1 µM (inactive)
GI50 [10]: 3.2 µM (inactive)
GI50 [11]: 2.65 µM (inactive)
GI50 [12]: 1.91 µM (inactive)
GI50 [13]: 3.7 µM (inactive)
GI50 [14]: 6.35 µM (inactive)
GI50 [15]: 3.88 µM (inactive)
GI50 [16]: 4.03 µM (inactive)
GI50 [17]: 2.61 µM (inactive)
GI50 [18]: 2.58 µM (inactive)
GI50 [19]: 4.71 µM (inactive)
GI50 [20]: 2.84 µM (inactive)
GI50 [21]: 2.11 µM (inactive)
GI50 [22]: 2.69 µM (inactive)
GI50 [23]: 2.62 µM (inactive)
GI50 [24]: 1.89 µM (inactive)
GI50 [25]: 2.51 µM
GI50 [26]: 0.839 µM (active)
GI50 [27]: 1.6 µM (inactive)
GI50 [28]: 15.3 µM (inactive)
GI50 [29]: 3.05 µM (inactive)
GI50 [30]: 10.5 µM (inactive)
GI50 [31]: 2.76 µM (inactive)
GI50 [32]: 2.74 µM (inactive)
GI50 [33]: 2.07 µM (inactive)
GI50 [34]: 5.94 µM (inactive)
GI50 [35]: 13.6 µM (inactive)
GI50 [36]: 5.74 µM (inactive)
GI50 [37]: 3.12 µM (inactive)
GI50 [38]: 14.7 µM (inactive)
GI50 [39]: 13.2 µM (inactive)
GI50 [40]: 2.59 µM (inactive)
GI50 [41]: 2.54 µM (inactive)
GI50 [42]: 3.34 µM (inactive)
GI50 [43]: 11.2 µM (inactive)
GI50 [44]: 6.68 µM (inactive)
GI50 [45]: 15.6 µM (inactive)
GI50 [46]: 1.55 µM (inactive)
GI50 [47]: 4.7 µM (inactive)
GI50 [48]: 3.08 µM (inactive)
GI50 [49]: 2.18 µM (inactive)
GI50 [50]: 3.1 µM (inactive)
GI50 [51]: 7.8 µM (inactive)
GI50 [52]: 1.86 µM (inactive)
GI50 [53]: 6.43 µM (inactive)
GI50 [54]: 2.51 µM (inactive)
GI50 [55]: 3.52 µM (inactive)
GI50 [56]: 2.76 µM (inactive)
GI50 [57]: 2.06 µM (inactive)
GI50 [58]: 3.08 µM (inactive)
GI50 [59]: 14.8 µM (inactive)

COC(=O)[C@H](Cc1ccccc1)NC(=O)c1ccc(CNC(=O)/C=C/c2csc(-c3ccccc3)n2)cc1
GI50 [1]: 1.93 µM (inactive)
GI50 [2]: 16.1 µM (inactive)
GI50 [3]: 0.275 µM (active)
GI50 [4]: 13.8 µM (inactive)
GI50 [5]: 7.03 µM (inactive)
GI50 [6]: 2.04 µM (inactive)
GI50 [7]: 7.13 µM (inactive)
GI50 [8]: 1.11 µM (active)
GI50 [9]: 2.81 µM (inactive)
GI50 [10]: 11.1 µM (inactive)
GI50 [11]: 2.83 µM (inactive)
GI50 [12]: 7.82 µM (inactive)
GI50 [13]: 21.2 µM (inactive)
GI50 [14]: 7.6 µM (inactive)
GI50 [15]: 1.84 µM (inactive)
GI50 [16]: 3.24 µM (inactive)
GI50 [17]: 3.91 µM (inactive)
GI50 [18]: 5.33 µM (inactive)
GI50 [19]: 29.9 µM (inactive)
GI50 [20]: 7.87 µM (inactive)
GI50 [21]: 19.3 µM (inactive)
GI50 [22]: 8.02 µM (inactive)
GI50 [23]: 7.38 µM (inactive)
GI50 [24]: 3.24 µM (inactive)
GI50 [25]: 7.35 µM
GI50 [26]: 7.74 µM (inactive)
GI50 [27]: 4.88 µM (inactive)
GI50 [28]: 23.7 µM (inactive)
GI50 [29]: 1.93 µM (inactive)
GI50 [30]: 8.11 µM (inactive)
GI50 [31]: 4.91 µM (inactive)
GI50 [32]: 3.89 µM (inactive)
GI50 [33]: 3.88 µM (inactive)
GI50 [34]: 7.33 µM (inactive)
GI50 [35]: 11 µM (inactive)
GI50 [36]: 10.9 µM (inactive)
GI50 [37]: 4.45 µM (inactive)
GI50 [38]: 38.5 µM (inactive)
GI50 [39]: 3.21 µM (inactive)
GI50 [40]: 2.72 µM (inactive)
GI50 [41]: 4.22 µM (inactive)
GI50 [42]: 15.3 µM (inactive)
GI50 [43]: 16.1 µM (inactive)
GI50 [44]: 14.6 µM (inactive)
GI50 [45]: 7.28 µM (inactive)
GI50 [46]: 4.5 µM (inactive)
GI50 [47]: 15.2 µM (inactive)
GI50 [48]: 46 µM (inactive)
GI50 [49]: 1.75 µM (inactive)
GI50 [50]: 3.18 µM (inactive)
GI50 [51]: 11.8 µM (inactive)
GI50 [52]: 8.28 µM (inactive)
GI50 [53]: 8.91 µM (inactive)
GI50 [54]: 8.2 µM (inactive)
GI50 [55]: 6.87 µM (inactive)
GI50 [56]: 24 µM (inactive)
GI50 [57]: 5.04 µM (inactive)
GI50 [58]: 3.46 µM (inactive)
GI50 [59]: 11.8 µM (inactive)
